# Source: ChEMBL document CHEMBL1240486, “Novel N-methylated 8-oxoisoguanines from Pacific sponges with diverse neuroactivities” (J Med Chem, 2010)
# Active and inactive are the calls of the source. The rule behind the calls is not given here.
# Columns and labels:
# Mus musculus [1] = experiment: Neurotoxicity in icv dosed ddY mouse assessed as 50% maximal convulsant dose measured for 60 mins; type: toxicity, organism-based; details: in vivo, icv_or_intrathecal, 1 h
# Mus musculus [2] = experiment: Neurotoxicity in ddY mouse assessed as induction of convulsions at 0.05 to 0.1 umol, icv measured for 60 mins; type: toxicity, organism-based; details: in vivo, icv_or_intrathecal, 1 h
# Mus musculus [3] = experiment: Neurotoxicity in ddY mouse assessed as changes in behavioral activity at 30 to 110 nmol/mouse, icv measured for 60 mins; type: toxicity, organism-based; details: in vivo, icv_or_intrathecal, 1 h
# Mus musculus [4] = experiment: Neurotoxicity in ddY mouse assessed as changes in behavioral activity at 14 nmol/mouse, icv measured for 60 mins; type: toxicity, organism-based; details: in vivo, icv_or_intrathecal, 1 h
# Mus musculus [5] = experiment: Neurotoxicity in ddY mouse assessed as changes in behavioral activity at >75 nmol/mouse, icv measured for 60 mins; type: toxicity, organism-based; details: in vivo, icv_or_intrathecal, 1 h
# Mus musculus [6] = experiment: Neurotoxicity in ddY mouse assessed as changes in behavioral activity at 25 to 50 nmol/mouse, icv measured for 60 mins; type: toxicity, organism-based; details: in vivo, icv_or_intrathecal, 1 h
# Mus musculus [7] = experiment: Neurotoxicity in ddY mouse assessed as induction of occasional tonic extension of forelimbs and weakness of lower bodies at 0.1 umol, icv measured for 60 mins; details: in vivo, icv_or_intrathecal, 1 h
# Mus musculus [8] = experiment: Toxicity in ddY mouse assessed as death at 0.1 umol, icv; type: organism-based; details: in vivo, icv_or_intrathecal
# Mus musculus [9] = experiment: Neurotoxicity in ddY mouse assessed as changes in behavioral activity at 100 nmol/mouse, icv measured for 60 mins; type: toxicity, organism-based; details: in vivo, icv_or_intrathecal, 1 h
# [10] = molecular target: Neuronal acetylcholine receptor; alpha3/beta2 (Homo sapiens, UniProt P17787+P32297); experiment: Binding affinity to nicotinic alpha3beta2 receptor receptor; type: protein-complex assay
# Neuronal acetylcholine receptor; alpha3/beta2, sequence (P17787 whole entry): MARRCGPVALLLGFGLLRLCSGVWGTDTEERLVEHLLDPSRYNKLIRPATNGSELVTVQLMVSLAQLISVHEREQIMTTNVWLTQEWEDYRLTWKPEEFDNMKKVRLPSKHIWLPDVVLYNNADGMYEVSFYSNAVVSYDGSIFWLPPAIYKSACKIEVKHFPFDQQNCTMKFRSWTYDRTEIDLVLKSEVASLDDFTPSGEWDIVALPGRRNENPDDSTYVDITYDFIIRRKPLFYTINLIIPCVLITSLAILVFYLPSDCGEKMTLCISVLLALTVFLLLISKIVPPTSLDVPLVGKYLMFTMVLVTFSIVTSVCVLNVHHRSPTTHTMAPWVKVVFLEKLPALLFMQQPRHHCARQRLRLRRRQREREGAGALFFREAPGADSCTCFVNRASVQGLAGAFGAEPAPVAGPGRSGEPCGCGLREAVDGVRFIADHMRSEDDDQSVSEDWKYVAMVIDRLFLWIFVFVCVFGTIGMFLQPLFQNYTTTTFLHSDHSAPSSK
# Neuronal acetylcholine receptor; alpha3/beta2, sequence (P32297 whole entry): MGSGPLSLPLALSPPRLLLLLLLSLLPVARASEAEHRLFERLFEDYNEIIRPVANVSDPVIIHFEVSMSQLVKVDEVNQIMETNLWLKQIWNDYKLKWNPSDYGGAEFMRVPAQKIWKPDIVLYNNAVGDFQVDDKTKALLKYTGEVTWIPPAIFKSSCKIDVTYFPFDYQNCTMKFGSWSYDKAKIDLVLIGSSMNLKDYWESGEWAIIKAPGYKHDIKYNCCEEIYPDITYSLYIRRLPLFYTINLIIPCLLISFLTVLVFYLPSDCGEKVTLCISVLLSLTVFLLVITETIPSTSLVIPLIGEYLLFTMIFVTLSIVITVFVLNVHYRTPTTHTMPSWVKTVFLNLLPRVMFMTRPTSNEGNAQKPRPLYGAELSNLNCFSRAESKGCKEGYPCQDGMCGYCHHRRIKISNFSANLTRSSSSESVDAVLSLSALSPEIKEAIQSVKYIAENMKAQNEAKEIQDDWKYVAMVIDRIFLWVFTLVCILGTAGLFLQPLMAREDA
# Rattus norvegicus [11] = organism: Rattus norvegicus; experiment: Displacement of [3H]kainate from kainate receptor in Sprague-Dawley rat synaptic membranes at 10 uM after 1 hr; type: cell membranes; details: Membrane
# Rattus norvegicus [12] = organism: Rattus norvegicus; experiment: Inhibition of GABAA receptor-mediated postsynaptic current in rat hippocampal neurons at 10 uM after 5 mins by whole-cell voltage clamp assay; type: tissue-based; details: Hippocampus
# Mus musculus [13] = organism: Mus musculus; experiment: Inhibition of excitatory postsynaptic current in juvenile mouse CA1 neurons at 30 uM by whole-cell voltage clamp assay
# Rattus norvegicus [14] = organism: Rattus norvegicus; experiment: Inhibition of GABAA receptor-mediated inhibitory synaptic currents in rat hippocampal neurons assessed as sEPSC bursts at 10 uM measured after compound washout by whole-cell voltage clamp assay; type: tissue-based; details: Hippocampus
# [15] = molecular target: T1, Alpha-1B adrenergic receptor (Homo sapiens, UniProt P35368); experiment: Binding affinity to adrenergic Alpha-1B receptor
# T1 sequence (P35368 whole entry): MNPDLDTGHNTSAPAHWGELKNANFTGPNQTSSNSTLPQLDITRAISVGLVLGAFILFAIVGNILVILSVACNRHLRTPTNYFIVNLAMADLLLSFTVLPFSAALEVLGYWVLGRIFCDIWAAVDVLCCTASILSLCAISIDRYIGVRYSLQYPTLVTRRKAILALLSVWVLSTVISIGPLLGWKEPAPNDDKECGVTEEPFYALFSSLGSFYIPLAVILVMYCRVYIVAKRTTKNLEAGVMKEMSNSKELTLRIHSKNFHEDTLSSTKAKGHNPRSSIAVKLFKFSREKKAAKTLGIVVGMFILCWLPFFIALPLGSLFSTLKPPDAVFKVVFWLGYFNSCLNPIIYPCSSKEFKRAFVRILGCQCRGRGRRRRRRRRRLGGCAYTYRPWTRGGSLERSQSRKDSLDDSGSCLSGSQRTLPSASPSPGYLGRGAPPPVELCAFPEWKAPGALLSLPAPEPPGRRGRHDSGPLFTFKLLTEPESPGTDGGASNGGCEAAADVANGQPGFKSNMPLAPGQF
# Rattus norvegicus [16] = organism: Rattus norvegicus; experiment: Displacement of [3H]muscimol from GABA binding site of GABAA receptor in rat brain membrane at <10 uM; type: cell membranes
# Mus musculus [17] = experiment: Neurotoxicity in ddY mouse assessed as changes in behavioral activity at >4 nmol/mouse, icv measured for 60 mins; type: toxicity, organism-based; details: in vivo, icv_or_intrathecal, 1 h
# Rattus norvegicus [18] = organism: Rattus norvegicus; experiment: Inhibition of GABAA receptor-mediated miniature inhibitory postsynaptic current in rat hippocampal neurons at 10 uM after 5 mins by whole-cell voltage clamp assay relative to baseline; type: tissue-based; details: Hippocampus
# [19] = molecular target: T2, Alpha-1D adrenergic receptor (Homo sapiens, UniProt P25100); experiment: Binding affinity to adrenergic Alpha-1D receptor
# T2 sequence (P25100 whole entry): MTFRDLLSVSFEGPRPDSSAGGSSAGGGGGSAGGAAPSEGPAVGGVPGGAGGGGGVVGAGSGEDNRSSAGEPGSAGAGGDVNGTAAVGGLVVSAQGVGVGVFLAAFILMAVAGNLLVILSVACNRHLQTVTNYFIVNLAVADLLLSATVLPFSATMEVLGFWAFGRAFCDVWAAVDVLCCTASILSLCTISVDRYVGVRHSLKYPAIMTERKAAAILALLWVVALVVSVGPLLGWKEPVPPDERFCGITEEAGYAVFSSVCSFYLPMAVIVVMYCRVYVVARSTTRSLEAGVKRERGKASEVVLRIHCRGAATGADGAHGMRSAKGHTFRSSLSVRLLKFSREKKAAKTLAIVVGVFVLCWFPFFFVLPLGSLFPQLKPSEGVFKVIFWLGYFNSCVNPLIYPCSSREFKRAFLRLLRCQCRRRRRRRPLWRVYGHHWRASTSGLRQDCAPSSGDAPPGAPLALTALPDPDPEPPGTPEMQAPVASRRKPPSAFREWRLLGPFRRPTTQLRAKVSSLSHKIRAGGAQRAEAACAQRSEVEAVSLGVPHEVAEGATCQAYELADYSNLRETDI
# Mus musculus [20] = organism: Mus musculus; experiment: Inhibition of GABAA receptor-mediated inhibitory synaptic currents in juvenile mouse CA1 neurons at 30 uM by whole-cell voltage clamp assay in presence of prazosin
# Rattus norvegicus [21] = organism: Rattus norvegicus; experiment: Inhibition of GABAA receptor-mediated postsynaptic current in rat hippocampal neurons at 30 uM after 5 mins by whole-cell voltage clamp assay; type: tissue-based; details: Hippocampus
# [22] = molecular target: T3, Alpha-1A adrenergic receptor (Homo sapiens, UniProt P35348); experiment: Binding affinity to adrenergic alpha1A receptor
# T3 sequence (P35348 whole entry): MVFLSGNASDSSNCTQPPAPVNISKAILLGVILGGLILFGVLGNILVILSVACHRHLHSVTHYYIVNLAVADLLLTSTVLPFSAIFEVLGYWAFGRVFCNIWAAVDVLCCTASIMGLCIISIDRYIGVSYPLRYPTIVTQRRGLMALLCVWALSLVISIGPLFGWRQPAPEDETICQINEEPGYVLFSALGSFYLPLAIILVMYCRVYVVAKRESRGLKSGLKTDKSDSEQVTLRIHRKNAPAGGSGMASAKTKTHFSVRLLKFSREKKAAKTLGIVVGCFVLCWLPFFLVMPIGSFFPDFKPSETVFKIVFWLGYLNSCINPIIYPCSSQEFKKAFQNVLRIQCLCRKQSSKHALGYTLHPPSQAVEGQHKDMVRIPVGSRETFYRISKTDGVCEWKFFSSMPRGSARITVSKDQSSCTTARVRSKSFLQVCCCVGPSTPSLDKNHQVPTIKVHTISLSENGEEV
# Mus musculus [23] = organism: Mus musculus; experiment: Inhibition of GABAA receptor-mediated inhibitory synaptic currents in juvenile mouse CA1 neurons at 30 uM by whole-cell voltage clamp assay
# Mus musculus [24] = experiment: Neurotoxicity in ddY mouse assessed as changes in behavioral activity at 1 nmol/mouse, icv measured for 60 mins; type: toxicity, organism-based; details: in vivo, icv_or_intrathecal, 1 h
# Rattus norvegicus [25] = organism: Rattus norvegicus; experiment: Displacement of [3H]AMPA from AMPA receptor in Sprague-Dawley rat synaptic membranes at 10 uM after 1 hr; type: cell membranes; details: Membrane
# Rattus norvegicus [26] = organism: Rattus norvegicus; experiment: Displacement of [3H]flunitrazepam from benzodiazepine binding site of GABAA receptor in rat brain membrane at <10 uM; type: cell membranes
# [27] = Inhibition of GABAA receptor-mediated miniature inhibitory postsynaptic current in rat hippocampal neurons at 10 uM after 5 mins by whole-cell voltage clamp assay relative to baseline in presence of nonselective adenosine receptor antagonist CGS-15943; type: functional; details: Hippocampus
# Rattus norvegicus [28] = organism: Rattus norvegicus; experiment: Inhibition of GABAA receptor-mediated miniature excitatory postsynaptic current in rat hippocampal neurons assessed as EPSC bursts at 10 uM after 5 mins by whole-cell voltage clamp assay (Rvb 0.69 +/- 0.21 Hz); type: tissue-based; details: Hippocampus
# Rattus norvegicus [29] = organism: Rattus norvegicus; experiment: Inhibition of GABAA receptor-mediated inhibitory synaptic currents in rat hippocampal neurons assessed as sEPSC bursts at 10 uM after 5 mins by whole-cell voltage clamp assay (reference value: 5.6 +/- 1.6 Hz); type: tissue-based; details: Hippocampus
# Mu-type opioid receptor = Mu-type opioid receptor (Homo sapiens, UniProt P35372); experiment: Binding affinity to mu opioid receptor
# Mu-type opioid receptor, sequence (P35372 whole entry): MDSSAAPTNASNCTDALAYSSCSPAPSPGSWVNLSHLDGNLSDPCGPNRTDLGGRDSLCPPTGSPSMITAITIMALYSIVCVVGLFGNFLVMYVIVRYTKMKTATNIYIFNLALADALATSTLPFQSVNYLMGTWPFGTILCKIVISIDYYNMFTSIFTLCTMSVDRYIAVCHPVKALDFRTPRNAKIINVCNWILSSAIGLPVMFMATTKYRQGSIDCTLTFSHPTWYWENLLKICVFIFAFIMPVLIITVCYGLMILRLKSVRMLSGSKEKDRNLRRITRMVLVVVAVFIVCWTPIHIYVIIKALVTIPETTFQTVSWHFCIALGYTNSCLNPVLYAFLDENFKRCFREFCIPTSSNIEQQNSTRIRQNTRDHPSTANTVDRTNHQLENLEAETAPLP
# [30] = molecular target: Kappa-type opioid receptor (Homo sapiens, UniProt P41145); experiment: Binding affinity to kappa opioid receptor
# Kappa-type opioid receptor, sequence (P41145 whole entry): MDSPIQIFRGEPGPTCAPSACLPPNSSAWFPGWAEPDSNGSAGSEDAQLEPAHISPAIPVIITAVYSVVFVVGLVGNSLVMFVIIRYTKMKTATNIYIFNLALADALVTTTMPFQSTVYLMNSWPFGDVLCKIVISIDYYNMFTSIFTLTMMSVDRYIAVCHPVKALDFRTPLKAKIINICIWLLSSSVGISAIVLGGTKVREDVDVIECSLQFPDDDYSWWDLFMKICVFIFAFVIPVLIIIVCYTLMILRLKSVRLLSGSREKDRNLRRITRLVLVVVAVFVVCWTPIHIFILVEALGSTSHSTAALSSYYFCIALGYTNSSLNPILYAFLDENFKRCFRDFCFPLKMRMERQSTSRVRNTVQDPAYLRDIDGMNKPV
# [31] = molecular target: 5-hydroxytryptamine receptor 1E (Homo sapiens, UniProt P28566); experiment: Binding affinity to 5HT1E receptor
# 5-hydroxytryptamine receptor 1E, sequence (P28566 whole entry): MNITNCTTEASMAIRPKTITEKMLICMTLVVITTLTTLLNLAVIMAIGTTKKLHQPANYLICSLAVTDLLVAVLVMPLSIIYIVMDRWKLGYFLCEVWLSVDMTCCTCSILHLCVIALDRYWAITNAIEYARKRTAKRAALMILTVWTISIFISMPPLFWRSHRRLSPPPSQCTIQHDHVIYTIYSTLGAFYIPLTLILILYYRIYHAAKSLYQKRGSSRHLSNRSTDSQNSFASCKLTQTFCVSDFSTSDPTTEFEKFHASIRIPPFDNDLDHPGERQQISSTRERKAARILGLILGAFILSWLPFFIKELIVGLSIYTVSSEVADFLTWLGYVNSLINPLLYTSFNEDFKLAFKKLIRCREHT
# Mus musculus [32] = organism: Mus musculus; experiment: Inhibition of GABAA receptor-mediated inhibitory synaptic currents in juvenile mouse CA1 neurons at 30 uM by whole-cell voltage clamp assay in presence of SCH-50911
# [33] = molecular target: GABA A receptor alpha-4/beta-3/gamma-2 (Homo sapiens) (UniProt P18507+P28472+P48169); experiment: Antagonist activity at recombinant alpha-4-beta-3-gamma-2S receptor expressed in HEK 293-T/17 cells assessed as GABA-induced current at 30 uM by whole-cell recording relative to control; type: functional, cell-based; parameters: scale not given: the % may be the effect or the level left; details: HEK293
# [34] = molecular target: Glutamate NMDA receptor (Rattus norvegicus) (UniProt P35439+Q00959+Q00960+Q00961+Q62645+Q8VHN2+Q9R1M7); experiment: Displacement of [3H]CGP39653 from NMDA receptor in Sprague-Dawley rat synaptic membranes at 10 uM after 1 hr; type: cell membranes; details: Membrane
# [35] = molecular target: Glutamate receptor 4 (Homo sapiens) (UniProt P48058); experiment: Antagonist activity at recombinant GluA4 receptor expressed in HEK 293-T/17 cells assessed as glutamate-induced current at 100 uM by whole-cell recording relative to control; type: functional, cell-based; parameters: scale not given: the % may be the effect or the level left; details: HEK293
# Glutamate receptor 4 (Homo sapiens), sequence (P48058 whole entry): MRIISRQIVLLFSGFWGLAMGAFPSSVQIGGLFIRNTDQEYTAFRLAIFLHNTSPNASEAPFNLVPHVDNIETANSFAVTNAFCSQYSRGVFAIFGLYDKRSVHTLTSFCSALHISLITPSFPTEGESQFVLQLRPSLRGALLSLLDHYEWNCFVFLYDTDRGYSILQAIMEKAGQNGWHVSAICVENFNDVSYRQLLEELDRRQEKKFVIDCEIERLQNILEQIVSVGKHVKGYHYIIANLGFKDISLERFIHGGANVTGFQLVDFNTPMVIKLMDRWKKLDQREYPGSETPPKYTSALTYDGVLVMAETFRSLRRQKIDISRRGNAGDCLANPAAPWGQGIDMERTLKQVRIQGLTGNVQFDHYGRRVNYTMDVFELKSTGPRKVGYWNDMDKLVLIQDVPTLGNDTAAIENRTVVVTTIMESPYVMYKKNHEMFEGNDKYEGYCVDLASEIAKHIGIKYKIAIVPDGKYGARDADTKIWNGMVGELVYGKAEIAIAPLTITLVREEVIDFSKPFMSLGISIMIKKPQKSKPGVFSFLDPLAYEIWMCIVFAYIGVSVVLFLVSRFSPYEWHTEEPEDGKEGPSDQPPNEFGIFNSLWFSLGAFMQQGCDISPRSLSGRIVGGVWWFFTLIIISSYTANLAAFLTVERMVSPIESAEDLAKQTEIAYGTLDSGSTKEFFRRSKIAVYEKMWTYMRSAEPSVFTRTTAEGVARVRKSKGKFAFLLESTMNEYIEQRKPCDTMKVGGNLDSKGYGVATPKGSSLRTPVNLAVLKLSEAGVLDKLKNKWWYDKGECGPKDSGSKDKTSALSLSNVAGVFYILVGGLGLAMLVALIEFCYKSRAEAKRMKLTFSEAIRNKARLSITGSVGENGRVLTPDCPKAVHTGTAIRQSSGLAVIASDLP
# Rattus norvegicus [36] = organism: Rattus norvegicus; experiment: Effect on GABAA receptor-mediated spontaneous excitatory postsynaptic current in rat hippocampal neurons assessed as frequency of sEPSC bursts at 10 uM after 5 mins by whole-cell voltage clamp assay (reference value: 0.84 +/- 0.12 Hz); type: tissue-based; details: Hippocampus
compound,measurement,setting,value
Cl.Cn1c(=O)[nH]c2c(=N)[nH]c(=O)[nH]c21,Activity,Mus musculus [1],18 nmol
same,Activity,Mus musculus [2],Toxic
same,Activity,Mus musculus [3],Toxic
same,Activity,Mus musculus [4],Toxic
Cl.Cn1c(=N)c2[nH]c(=O)[nH]c2n(C)c1=O,Activity,Mus musculus [1],54 nmol
same,Activity,Mus musculus [5],Toxic
same,Activity,Mus musculus [6],Toxic
same,Activity,Mus musculus [7],Toxic
same,Activity,Mus musculus [8],Toxic
Cl.Cn1c(=O)[nH]c(=N)c2[nH]c(=O)n(C)c21,Activity,Mus musculus [9],Toxic
Cl.Cn1c(=O)[nH]c2c([nH]c(=O)n2C)c1=N,Activity,Mus musculus [1],2.4 nmol
same,Ki,[10],4200 nM
same,inhibition,Rattus norvegicus [11],inactive
same,inhibition,Rattus norvegicus [12],Active
same,inhibition,Mus musculus [13],22%
same,Activity,Rattus norvegicus [14],6 Hz
same,Ki,[15],758 nM
same,inhibition,Rattus norvegicus [16],inactive
same,Activity,Mus musculus [17],Toxic
same,inhibition,Rattus norvegicus [18],32%
same,Ki,[19],497 nM
same,inhibition,Mus musculus [20],Active
same,inhibition,Rattus norvegicus [21],Active
same,Ki,[22],885 nM
same,inhibition,Mus musculus [23],71%
same,Activity,Mus musculus [24],Toxic
same,inhibition,Rattus norvegicus [25],inactive
same,inhibition,Rattus norvegicus [26],inactive
same,inhibition at 10 µM,[27],29.6%
same,Activity,Rattus norvegicus [28],0.95 Hz
same,Activity,Rattus norvegicus [29],3.6 Hz
same,Ki,Mu-type opioid receptor,8900 nM
same,Ki,[30],1800 nM
same,Ki,[31],2900 nM
same,inhibition,Mus musculus [32],Active
same,Activity,[33],93%
same,inhibition,[34],inactive
same,Activity,[35],100%
same,Activity,Rattus norvegicus [36],0.9 Hz
